Consider 1 compound from patent US20230110757A1, “METHODS FOR TREATING ANIMALS, FEED, DRINKING WATER, WASH WATER, PROCESSING EQUIPMENT, PACKAGING MATERIALS, AND FOOD PRODUCTS” (EVOQ NANO, INC., priority 2021, published 2023).

In this experiment the test system is E. coli, KwikStik, ATCC #51813. Description: Antibacterial efficacy test, RLU (ATP) counts post treatment. The format is cell-based. As to the method:
An antibacterial efficacy test was carried out comparing an “Attostat” nanoparticle formulation (8 nm size) against silver nitrate and against the National Institute of Standards and Technology (NIST) Standard Nanocomposix 10 nm silver nanoparticles. The NIST nanoparticles are formed by a chemical reduction process that utilizes citrate as reducing and capping agent.
Relative Light Unit (RLU) counts were recorded at 12 hours and 24 hours post treatment. RLU measurements were carried out using a Hygiena SystemSURE Plus V.2 SN067503 RLU meter with Hygenia AquaSnap TOTAL ATP Water Test Cat #U143 Lot #153019. Culturing media was Hardy Diagnostics Buffered Peptone Water Lot #118272. Samples were prepared with the nanoparticle treatments and then diluted with the media to provide the tested concentrations. The test organism (Microbiologics, E. coli, KwikStik, ATCC #51813, Ref #0791 K, Lot #791-1-6) was incubated in fresh Buffered Peptone Water growth media for 24 hours prior to exposure to the nanoparticle treatments.

As to `O=[N+]([O-])[O-].[Ag+]` [AgNO3 Silver Nitrate, silver nitrate], for the setting “0.25 ppm (mg/L)”, the “RLU Counts at 12 Hours Post Exposure to Nanoparticle Treatment” value (“RLU Counts at 12 Hours Post Exposure” below) is 80 RLU, the “RLU as percentage of control at 12 Hours Post Treatment” value came out at 1.2%, the “RLU Counts at 24 Hours Post Exposure to Nanoparticle Treatment” value (“RLU Counts at 24 Hours Post Exposure” below) worked out at 25 RLU and the “RLU as percentage of control at 24 Hours Post Treatment” value is recorded as 0.34%. Besides, where the note is “0.5 ppm (mg/L)”, the “RLU Counts at 12 Hours Post Exposure” value is listed as 75 RLU, the “RLU as percentage of control at 12 Hours Post Treatment” value was found to be 1.1%, the “RLU Counts at 24 Hours Post Exposure” value is recorded as 46 RLU and the “RLU as percentage of control at 24 Hours Post Treatment” value is 0.62%. For the setting “1.0 ppm (mg/L)”, the “RLU Counts at 12 Hours Post Exposure” value is 84 RLU, the “RLU as percentage of control at 12 Hours Post Treatment” value was determined as 1.3%, the “RLU Counts at 24 Hours Post Exposure” value amounted to 30 RLU and the “RLU as percentage of control at 24 Hours Post Treatment” value was determined as 0.41%.
